How the values were obtained:
[1] = test system: a variety of test species; assay: Pre-emergence herbicidal activity (glasshouse, sprayed one day after sowing, evaluated after 13 days); assay type: in vivo; set-up: key: 5=total damage to plant; 0=no damage to plant; details: application pre-emergence, rate 1000 g/Ha, scale 0-5
In short: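 Sow in pots of standard soil; after one day under glasshouse conditions, spray compound (acetone/water 50:50 formulation, 0.5% Tween 20, diluted in water). Grow on at 24/16 °C, 14 h light, 65% humidity with twice-daily watering. Assess at 13 days, 0–5 damage scale.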

[2] = test system: a variety of test species; assay: Post-emergence herbicidal activity (glasshouse, sprayed after 8 days cultivation, evaluated after 13 days); assay type: in vivo; set-up: key: 5=total damage to plant; 0=no damage to plant; details: rate 1000 g/Ha, scale 0-5
In short: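 Visual herbicidal injury (0 = no damage, 5 = plant killed) recorded 13 days post-treatment. Treatment consisted of a single spray onto emerged seedlings at day 8; conditions before and after were 24/16 °C, 14 h light, 65% humidity.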

melting point [°C] | Structure (SMILES) | Pre-emergence herbicidal damage score, ABUTH [1] | Pre-emergence herbicidal damage score, ALOMY [1] | Pre-emergence herbicidal damage score, AMARE [1] | Pre-emergence herbicidal damage score, ECHCG [1] | Pre-emergence herbicidal damage score, SETFA [1] | Pre-emergence herbicidal damage score, ZEAMX [1] | ABUTH (Abutilon theophrasti) damage score, application post-emergence [2] | ALOMY (Alopecurus myosuroides) damage score, application post-emergence [2] | AMARE (Amaranthus retroflexus) damage score, application post-emergence [2] | ECHCG (Echinochloa crus-galli) damage score, application post-emergence [2] | SETFA (Setaria faberi) damage score, application post-emergence [2] | ZEAMX (Zea mays) damage score, application post-emergence [2]
156 to 158 | CC1=C(Cl)C(=O)N(c2cc(C(C)(C)C)on2)C1O (centres unmarked) [A2, 1-(5-tert-butylisoxazol-3-yl)-4-chloro-2-hydroxy-3-methyl-2H-pyrrol-5-one] | 5 | 3 | 5 | 5 | 5 | 3 | 5 | 5 | 5 | 5 | 5 | 5
126 to 128 | CC1=C(Cl)C(=O)N(c2cc(C(C)C)on2)C1O (centres unmarked) [A11] | 5 | 4 | 5 | 5 | 5 | 2 | 5 | 5 | 5 | 5 | 5 | 5
138 to 140 | CC1=C(Cl)C(=O)N(c2cc(CC(C)C)on2)C1O (centres unmarked) [A12] | 5 | 4 | 4 | 5 | 5 | 1 | 5 | 5 | 5 | 5 | 5 | 4
130 to 132 | CC1=C(Cl)C(=O)N(c2cc(C3CCC3)on2)C1O (centres unmarked) [A21] | – | 3 | 5 | 5 | 3 | – | – | 5 | 5 | 5 | 5 | –
174 to 176 | CC1=C(Cl)C(=O)N(c2cc(C3CC3)on2)C1O (centres unmarked) [A22] | 5 | 4 | 4 | 5 | 5 | 1 | 5 | 5 | 5 | 5 | 5 | 4
169 to 171 | CC1=C(Cl)C(=O)N(c2cc(C(C)(C)C(N)=O)on2)C1O (centres unmarked) [A67, 2-[3-(4-chloro-2-hydroxy-3-methyl-5-oxo-2H-pyrrol-1-yl)isoxazol-5-yl]-2-methyl-propanamide] | – | – | – | – | – | – | – | – | – | – | – | –

The remaining lines, values behind:

Structure (SMILES) | melting point [°C] | Pre-emergence herbicidal damage score, ABUTH [1] | Pre-emergence herbicidal damage score, ALOMY [1] | Pre-emergence herbicidal damage score, AMARE [1] | Pre-emergence herbicidal damage score, ECHCG [1] | Pre-emergence herbicidal damage score, SETFA [1] | Pre-emergence herbicidal damage score, ZEAMX [1] | ABUTH (Abutilon theophrasti) damage score, application post-emergence [2] | ALOMY (Alopecurus myosuroides) damage score, application post-emergence [2] | AMARE (Amaranthus retroflexus) damage score, application post-emergence [2] | ECHCG (Echinochloa crus-galli) damage score, application post-emergence [2] | SETFA (Setaria faberi) damage score, application post-emergence [2] | ZEAMX (Zea mays) damage score, application post-emergence [2]
CC1=C(Cl)C(=O)N(c2noc(C(C)(C)C)c2F)C1O (centres unmarked) [A19, 1-(5-tert-butyl-4-fluoro-isoxazol-3-yl)-4-chloro-2-hydroxy-3-methyl-2H-pyrrol-5-one] | 98 to 100 | – | 4 | 5 | 5 | 5 | – | – | 5 | 5 | 5 | 5 | –
CC1=C(Cl)C(=O)N(c2noc(C(C)(C)C)c2C)C1O (centres unmarked) [A20, 1-(5-tert-butyl-4-methyl-isoxazol-3-yl)-4-chloro-2-hydroxy-3-methyl-2H-pyrrol-5-one] | 134 to 136 | – | 4 | 1 | 5 | 5 | – | – | 5 | 4 | 5 | 5 | –
CC1=C(Cl)C(=O)N(c2noc(C(C)(C)C)c2Br)C1O (centres unmarked) [A23, 1-(4-bromo-5-tert-butyl-isoxazol-3-yl)-4-chloro-2-hydroxy-3-methyl-2H-pyrrol-5-one] | 158 to 160 | 5 | 4 | 5 | 5 | 3 | 3 | 5 | 5 | 5 | 5 | 5 | 4
CC1=C(Cl)C(=O)N(c2noc(C(C)(C)C)c2Cl)C1O (centres unmarked) [A24] | 143 to 145 | 5 | 4 | 4 | 5 | 4 | 2 | 5 | 5 | 5 | 5 | 5 | 4
CC1=C(Cl)C(=O)N(c2cc(C3CCCCC3)on2)C1O (centres unmarked) [A25] | 141 to 143 | 3 | 2 | 5 | 2 | 0 | 0 | 5 | 3 | 4 | 4 | 5 | 1
COC1=C(C)C(=O)N(c2cc(C)on2)C1O (centres unmarked) [G2] | – | 5 | 1 | 5 | 3 | 3 | 1 | 3 | 2 | 5 | 2 | 1 | 1
COCC(C)(C)c1cc(N2C(=O)C(C)=C(OC)C2O)no1 (centres unmarked) [G3] | – | 5 | 3 | 5 | 5 | 5 | 4 | 5 | 4 | 3 | 5 | 5 | 5
COC1=C(C)C(=O)N(c2noc(C(C)(C)C)c2C#N)C1O (centres unmarked) [G7] | – | 5 | 4 | 5 | 5 | 5 | 4 | 5 | 5 | 5 | 5 | 5 | 5
